Measurements from patent US20260373127A1, “USE OF DIHYDROBERBERINE OR ITS DERIVATIVES FOR REGULATING GLP-1” (NANJING NUTRABUILDING BIO-TECH CO., LTD., priority 2024, published 2026).

Assays:
Weight of the fat pad = format: in vivo, mice; conditions: 1.5 mg/kg; result in words
Protocol: (§1) At the beginning of the experiment, the mice were divided randomly into control mice (Group 1, n=8), HFD group (Group 2, n=8), HFD+DHB group (Group 3, n=8) and NC+DHB group (Group 4, n=8). The dosage of DHB supplementation is 1.5 mg/kg. The group 1 is the control group and is given the normal chow; the group 2 is the high-fat mouse and continue high fat diet for 8 weeks; the group 3 also continued to eat a high-fat diet and received daily intragastric administration of sample for 8 weeks; the group 4 is given the normal chow and received daily intragastric administration of sample for 8 weeks. Record the body fat and weight of each group of mice every week. Complete Oral glucose tolerance test (OGTT)/Insulin intraperitoneal tolerance test (IPTT) on the last day of week 8, then execute the mice and take serum −80 °C for storage.
Weight of the fat pad: At the 17th week, the mice were sacrificed, and the fat pads (subcutaneous, epididymis and perirenal) were dissected, photographed and weighed.

GLP-1 [1] = assay: Serum GLP-1 by ELISA; format: in vivo, mice; conditions: 1.5 mg/kg; result in words
Protocol: as §1
(§2) Serum detection by ELISA: At week 8th of the experiment, the whole blood is extracted by removing the eyeball. The serum was acquired after centrifugation (10000 rpm 15 mins), stored at −80 °C for later use. Determinate the concentration of insulin (INS), cholesterol (TC), triglycerides (TG), LDL (low density lipoprotein), HDL (high density lipoprotein), GLP-1 in serum by ELISA kits.

[2] = Body weight in another 14-week mice experiment; format: in vivo; conditions: 35 mg/kg
[3] = Fasting blood glucose in another 14-week mice experiment; format: in vivo; conditions: 35 mg/kg, at week 13
[4] = Acute intervention study on appetite measures in human; format: in vivo; conditions: single 200 mg dose
insulin (INS) = assay: Serum insulin (INS) by ELISA; format: in vivo, mice; conditions: 1.5 mg/kg; result in words
Protocol: as §1, §2

[5] = Serum lipids (TC, TG, LDL, HDL) by ELISA; format: in vivo, mice
Protocol: as §1, §2

GLP-1 [6] = assay: GLP-1 in another 14-week mice experiment; format: in vivo; conditions: 35 mg/kg, at week 14
[7] = Oral glucose tolerance test (OGTT); format: in vivo, mice
Protocol: as §1
(§3) Measurement of Blood Glucose: Oral glucose tolerance test (OGTT): At week 16th of the experiment, after fasting for 15 h, Glucose was given […] (2 g/kg), and blood Glucose was measured at 0, 15, 30, 60, 90, 120 mins. Insulin intraperitoneal tolerance test (IPTT): At week 16th of the experiment, after fasting for 15h, insulin (1U/kg) was injected intraperitoneally and blood glucose was measured at 0, 15, 30, 60, 90, 120 mins.

[8] = Change of body weight, 8-week mouse study; format: in vivo, mice; conditions: for body weight: DHB 1.5 mg/kg daily intragastric
Protocol: as §1
Change of body weight: Weigh once a week at a fixed time from beginning of the experiment.

[9] = Body composition analysis (fat content), 8-week mouse study; format: in vivo, mice; conditions: 1.5 mg/kg daily intragastric, 8 weeks
Protocol: as §1
Body composition analysis: During the experiment, the fat mass and lean mass was measured by Nuclear Magnetic Resonance Body Composition Analyzer once a week.

[10] = Insulin intraperitoneal tolerance test (IPTT); format: in vivo, mice
Protocol: as §1, §3

[11] = HFD+DHB group, 1.5 mg/kg daily intragastric, 8 weeks
[12] = NC+DHB group, 1.5 mg/kg daily intragastric, 8 weeks

Compound: COc1ccc2c(c1OC)CN1CCc3cc4c(cc3C1=C2)OCO4 [DHB, dihydroberberine]
- pararenal fat pad weight relative to mice without DHB supplementation (Weight of the fat pad): significantly increase
- serum GLP-1 relative to mice without DHB supplementation (GLP-1 [1]): significantly increase
- benefits over time ([2]; 14-week mice experiment, result in words): Benefits intensified over time rather than plateauing
- weight loss compared with untreated control group (HFD group) ([2]; by week 7): about 15%
- weight loss compared with untreated control group (HFD group) ([2]; by week 13): about 33%
- decrease of fasting blood glucose compared with untreated control group (HFD group) [3]: about 16%
- subjective appetite [4]: decreases subjective appetite
- composite appetite score ([4]; vs placebo): beat placebo
- desire to eat ([4]; vs placebo): beat placebo
- fullness ([4]; vs placebo): beat placebo
- hunger ([4]; vs placebo): beat placebo
- prospective food consumption ([4]; vs placebo): beat placebo
- serum INS relative to mice without DHB supplementation (insulin (INS)): decrease
- serum HDL relative to mice without DHB supplementation ([5]; 1.5 mg/kg, result in words): significantly increase
- serum LDL relative to mice without DHB supplementation ([5]; 1.5 mg/kg, result in words): decrease
- serum TC relative to mice without DHB supplementation ([5]; 1.5 mg/kg, result in words): decrease
- serum TG relative to mice without DHB supplementation ([5]; 1.5 mg/kg, result in words): decrease
- decrease of LDL compared with HFD group [5, 11]: 32.3%
- increase in serum HDL compared with HFD group [5, 11]: 19%
- increase of ratio of HDL/LDL compared with HFD group [5, 11]: 76%
- reduction in serum TG compared with HFD group [5, 11]: 26.1%
- reduction of blood TC compared with HFD group [5, 11]: 20.6%
- decrease of LDL compared with NC group [5, 12]: 18.3%
- increase in serum HDL compared with NC group [5, 12]: 8.8%
- increase of ratio of HDL/LDL compared with NC group [5, 12]: 33%
- reduction in serum TG compared with NC group [5, 12]: 13.2%
- reduction of blood TC compared with NC group [5, 12]: 9.8%
- increase of GLP-1 compared with untreated control group (HFD) (GLP-1 [6]): 165%
- blood glucose tolerance relative to mice without DHB supplementation ([7]; 1.5 mg/kg, result in words): improve the blood glucose and insulin tolerance
- decrease of AUC of OGTT compared with HFD group ([7]; HFD+DHB group (Group 3), 1.5 mg/kg daily intragastric, glucose 2 g/kg, 0-120 mins): approximately 19%
- decrease of AUC of OGTT compared with control mice ([7]; NC+DHB group (Group 4), 1.5 mg/kg daily intragastric, glucose 2 g/kg, 0-120 mins): approximately 10%
- body weight curve ([8]; DHB groups, 1.5 mg/kg, 8 weeks, result in words): helpful in inhibiting high fat induced obesity
- decrease of body weight compared with HFD group [8, 11]: 9.84%
- body weight ([8]; HFD+DHB group, 8 weeks, HFD group 37 g): 33.36 g
- decrease of body weight compared with NC group ([8]; NC+DHB group, 1.5 mg/kg daily intragastric, at the 8th week): 7.75%
- body weight ([8]; NC+DHB group, 8 weeks, NC group 33.96 g): 31.33 g
- decrease of fat content compared with HFD group ([9]; HFD+DHB group (Group 3)): approximately 19%
- decrease of fat content compared with control mice ([9]; NC+DHB group (Group 4)): ~35%
- insulin tolerance relative to mice without DHB supplementation ([10]; 1.5 mg/kg, result in words): improve the blood glucose and insulin tolerance
- decrease of AUC of IPTT compared with HFD group ([10]; HFD+DHB group (Group 3), 1.5 mg/kg daily intragastric, insulin 1U/kg i.p., 0-120 mins): about 27%
- decrease of AUC of IPTT compared with control mice ([10]; NC+DHB group (Group 4), 1.5 mg/kg daily intragastric, insulin 1U/kg i.p., 0-120 mins): approximately 21%
